Measurements published in patent publication US12391646B2, “Using adiponectin receptor agonists to treat inflammation and bone diseases in diabetes” (Trustees of Tufts College, priority 2020, dated 2025).

Legend:
[1] = tested on: RAW 264.7 cells (osteoclast differentiation); test: RANKL-induced osteoclast differentiation of RAW 264.7 cells; type: cell-based; settings: for number of osteoclast-like cells (TRAP staining): co-culture with RANKL 6 days, AdipoRon 20 μM, AdipoAI 5 μM
Protocol: RAW 264.7 cells (ATCC, Manassas, VA, USA) were cultured and passaged in DMEM supplemented with 10% (v/v) FBS (Invitrogen, Grand Island, NY, USA) and 1% Penicillin-Streptomycin (Gibco, Gaithersburg, MD, USA). For the induction of osteoclastogenesis, RAW 264.7 cells were cultured 24 in α-MEM supplemented with 10% FBS and 1% Penicillin-Streptomycin in the presence of 100 ng/ml RANKL (Peprotech, Rocky Hill, NJ, USA) for 2 days, and subsequently treated or not with AdipoRon or AdipoAI for another 2 days changing cell culture medium every 2 days. After a total of […] of culture, morphologic examination was performed, as was mRNA and protein expression. To simulate high glucose environment in vitro, α-MEM was supplemented with D-glucose to 25 mmol/l (high glucose) or 5 mmol/l (physiological glucose). 20 mmol/l D-mannitol served as an osmotic control.
Total RNA was isolated from cell cultures and gingival soft tissues using TriZol reagent (Life Technologies, Carlsbad, CA, USA) according to the manufacturer's instructions^24. Reverse transcription was performed using the PrimeScript RT Master Mix (Takara Bio, Otsu, Japan) and real-time-qPCR analyses were performed using SYBR-Green Real-Time PCR Master Mix (Takara Bio, Otsu, Japan) as described earlier^27.

[2] = tested on: LPS-stimulated RAW 264.7 macrophages; test: qPCR of cytokine mRNA in LPS-stimulated RAW 264.7 macrophages; type: cell-based; settings: for expression of proinflammatory cytokines such as IL-6 and IL-1B: LPS-induced macrophages
Protocol: FIG. 1 Characterization of anti-inflammatory properties of APR-like compounds. (a) Raw264.7 cells were pretreated with APR (20 μM) or new compounds 1 to 10 (5 μM) for 24 h followed by incubation with LPS (100 ng/mL) for an additional 6 h. IL-6 and IL-1β mRNA expression levels were evaluated by qPCR and normalized with GAPDH mRNA level. (b) Raw264.7 cells were pretreated with different doses of AdipoAI for 24 h followed by incubation with LPS (100 ng/mL) for additional 6 h to evaluate dose-dependency of AdipoAI in inhibiting IL-6 and IL-1β mRNA expression levels by qRT-PCR and normalized with GAPDH mRNA level. (c) Evaluation of cytotoxicity of APR, AdipoAI and compound 5 by CCK8 assay in Raw264.7 cells treated for 24 hours. (d) BMMs were pretreated with APR (20 μM), AdipoAI (5 μM) or compound 5 (5 μM) for 24 h followed by incubation with LPS (100 ng/ml) for additional 6 h for the measurement of IL-6 and IL-1β mRNA expression levels by qRT-PCR and normalized with GAPDH mRNA level. Data were expressed as the mean±SEM at five biological independent experiments. One-way ANOVA test for multiple-group comparisons, *P<0.05, significant differences between each indicated group.
RAW 264.7 macrophage cell line was purchased from ATCC (Manassas, VA, USA) and maintained in DMEM (Gibco, Life Technologies, Carlsbad, CA, USA) supplemented with 10% (v.v-1) FBS (Gibco, Life Technologies) and 1% (v.v-1) penicillin/streptomycin (Gibco, Life Technologies). The cells were routinely cultured in an incubator at 37° C. in a humidified atmosphere of 5% CO2.
Total RNA of cells was extracted using Quick-RNA Miniprep Kit (ZYMO Research, Irvine, CA, USA) and total RNA from mouse tissues was prepared with TriZol reagent (Life Technologies) according to the manufacturer's instructions followed by qRT-PCR assays as described previously (L. Zhang et al., 2014). 1 μg of total RNA was used for reverse transcription using the M-MLV Reverse Transcriptase (Thermo Scientific, Waltham, MA, USA) according to the manufacturer's protocol using PowerUp SYBR Green Master Mix (Thermo Scientific) on a Bio-Rad iQ5 thermal cycler (Bio-Rad Laboratories, Hercules, CA, USA). Differences in expression were evaluated by the comparative cycle threshold method using GAPDH or β-actin as a control. The primer sequences used for the qRT-PCR experiments are listed in supplemental Table 1.
Macrophages were seeded at a density of 5×10^5 cells/well in 12-well plates. After overnight incubation, the cells were transfected for 24 h with siRNAs targeting specific genes or scrambled control siRNAs using HiPerFect Transfection Reagent (Qiagen, Hilden, Germany) according to the manufacturer's guidelines. Gene silencing efficiency was monitored by qPCR or Western blot analysis. The siRNA duplexes used in this study were chemically synthesized by Thermo Scientific.

[3] = higher concentration, RANKL 100 ng/ml

SMILES	downregulation of TRAP mRNA expression ([1]; 5 μM, RANKL 100 ng/ml)	downregulation of cathepsin K mRNA expression ([1]; 5 μM, RANKL 100 ng/ml) [%]	number of osteoclast-like cells (TRAP staining) [1]	expression of proinflammatory cytokines such as IL-6 and IL-1B [2]	dependence of inhibition of proinflammatory cytokine mRNA on AdipoRs and APPLs (siRNA) ([2]; Raw264.7 cells transfected with siRNA)	inhibition of IL-6 and IL1-β mRNA expression ([2]; compounds at 5 μM vs APR at 20 μM, 24 h pretreatment, then LPS 100 ng/mL 6 h)	anti-inflammatory efficacy relative to APR ([2]; in macrophages, estimated)	LPS-stimulated IL-6 and IL-1β mRNA expression, dose-dependency ([2]; increasing concentrations, 24 h, then LPS 100 ng/mL 6 h)	inhibition of TRAP mRNA expression [1, 3] [%]	inhibition of cathepsin K mRNA expression [1, 3] [%]
COc1ccc(CN2CCC(NC(=O)COc3ccc(C(=O)c4ccc(Cl)cc4)cc3)CC2)cc1 [Compound 3]	97.0%	87.5	significantly reduced the number of osteoclast-like cells	inhibited expression of proinflammatory cytokines such as IL-6 and IL-1B	prevented by AdipoR1 and APPL1 suppression, but not AdipoR2 or APPL2	stronger inhibitory effects than APR	about 8 times	decreased LPS-stimulated IL-6 and IL-1β mRNA expression in a dose-dependent fashion	–	–
O=C(COc1ccc(C(=O)c2ccccc2)cc1)NC1CCN(Cc2ccccc2)CC1 [AdipoRon, reference compound]	no significant inhibition in TRAP mRNA expression	–	significantly reduced the number of osteoclast-like cells	inhibited expression of proinflammatory cytokines such as IL-6 and IL-1B	–	–	–	–	64.5	65.1
